Assay results from publication PMC3353486, “Fluorescence Correlation Spectroscopy in Drug Discovery: Study of Alexa532-Endothelin 1 Binding to the Endothelin ETA Receptor to Describe the Pharmacological Profile of Natural Products” (The Scientific World Journal, 2012).

Tests used:
[1] = system: Rat vascular smooth muscle A10 cells; assay: Inositol phosphate (IP1) production, IP-One ELISA, A10 cells; assay type: cell-based; conditions: 0.5 to 50 nM ligand, 30 min; for inositol phosphate (IP1) production, dose-dependent increase up to: ELISA read at 450 nm, mean ± SEM of eight measurements
Description: The inositol phosphate determination assay was performed using the IP-One ELISA Kit for adherent cells (CISBIO, Cedex, France) following the operation instructions. […] The test substances were diluted in the stimulation buffer to a final concentration ranging from 0.5 to 50 nM. Cells were incubated for 30 minutes before their lysis. The supernatant was transferred into the ELISA plate where the competitive immunoassay took place. After the reaction was stopped, the optical density corresponding to IP accumulation was read at 450 nm with Bio-Rad Microplate Reader (Bio-Rad, Munich, Germany).
Data are presented as the mean ± SEM of eight measurements.

ETA receptor = system: ETA receptor; set-up: method as in PMID 8942650; conditions: ET-1/receptor complexes dissociate slowly; cited from earlier work
endothelin ETA receptor = target: T1, endothelin ETA receptor (Rattus norvegicus, UniProt P26684); assay: FCS binding of Alexa532-ET1 to ETA receptor on living A10 cells (total, saturation, lateral mobility)
T1 construct: endothelin ETA receptor-ligand complex alone and under the influence of a semisynthetic selective antagonist and a fungal extract on living A10 cells; endogenous in cells; host or cells: A10 cells
T1 sequence (P26684 21-426): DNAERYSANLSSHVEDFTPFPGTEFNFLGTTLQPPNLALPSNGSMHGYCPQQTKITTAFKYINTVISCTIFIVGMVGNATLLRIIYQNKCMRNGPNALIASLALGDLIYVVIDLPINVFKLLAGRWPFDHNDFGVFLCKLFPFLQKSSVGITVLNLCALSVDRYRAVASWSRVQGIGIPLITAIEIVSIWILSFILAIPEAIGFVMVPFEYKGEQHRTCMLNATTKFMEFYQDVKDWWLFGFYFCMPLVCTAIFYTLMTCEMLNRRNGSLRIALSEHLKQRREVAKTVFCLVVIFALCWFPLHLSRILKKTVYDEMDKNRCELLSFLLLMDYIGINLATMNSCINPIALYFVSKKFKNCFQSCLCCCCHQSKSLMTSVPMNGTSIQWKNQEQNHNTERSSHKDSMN
Description: FCS measurements were performed via confocal illumination of a volume element of 0.19 fL in a ConfoCor 1 instrument (Zeiss, Jena, Germany) with a C-Apochromat 63x, NA 1.2 objective for water immersion. A dichroic filter and a band-pass filter (FT 540, EF 530–600) (Andover, Salem, MA) separated the excitation light from the emitted fluorescence. Sample excitation was performed with the 514 nm line of an argon laser. The power of the laser beam entering the sample was 2.4 kW/cm^2. The intensity fluctuations were detected by an avalanche photodiode (SPCM-AQ Series, PerkinElmer Optoelectronics, Fremont, ON) and were correlated with a digital hardware correlator (ALV-5000, ALV, Langen, Germany). To calibrate the volume element of observation for the experiments, a defined concentration of tetramethylrhodamine (TMR) was used. From the determined diffusion time constant of TMR and the diffusion coefficient D of 280 μm^2/s, the radio ω 0 (0.20 μm) and z 0 (1.08 μm) of the volume element were determined. Volume element positioning to the upper membrane of the cell was performed by motor-aided scanning through the cell in the z-direction (optoelectronical DC-servodrives, resolution of 0.1 μm). For the FCS experiments, the focus was placed at half maximal of fluorescence intensity at the upper membrane, taking in fast diffusing free ligand and slow diffusing receptor-ligand complexes in the plasma membrane.
A10 cells were seeded at a density of 5.0 × 10^4 on 18 mm poly-D-lysine-coated coverslips. The coverslips were placed in a Nunc 12 well plate, and the cells were cultured for 7 days in Dulbecco's Modified Essential Media supplemented with L-glutamine (2 mM), 1% of a solution containing 10000 I.U./mL penicillin and 10000 μg/mL streptomycin (GIBCO, Invitrogen, Karlsruhe, Germany) and 20% foetal calf serum. The cells were grown in 5% CO2 at 37°C until confluence was reached.
Prior to the FCS measurements, cells were washed three times with Locke's solution (5 mM HEPES, 154 mM NaCl, 5.6 mM KCl, 1 mM MgCl2, 3.6 mM Na2CO3, 2.0 mM glucose, 2.3 mM CaCl2 (pH 7.4)) at 37°C.
The autocorrelation function G(τ) for j different diffusing components in a three-dimensional Gaussian volume element is given by the following equation:
(2) τDj=ω02/4Dj, (3) Qj=σjηjgj, where N j is the average number of molecules of the species j in the volume element, τ Dj is the diffusion time constant of the species j, τ is the correlation time; ω 0 is the radius of the observation volume in the focal plane, z 0 is the radius of the observation volume in the z-direction, D j is the translational diffusion coefficient of the species j; Q j is the quantum yield factor, σ j is the absorption coefficient, η j is the fluorescence quantum yield, and g j is the fluorescence detection efficiency of the species j.
All data points from FCS measurements represent mean values and standard deviations of six independent experiments. The statistical significance of results was proven with one factorial analysis of variance (ANOVA). The results were considered to be significant for P values ≤0.05.

GABAA receptor = conditions: coincubated benzodiazepines, hippocampal neurons, selectively complexes with hindered lateral mobility; cited from earlier work
Description: For the ETA receptor model described here, as well as for the GABAA and the β 2-adrenergic receptor models described elsewhere, the proportion of the fast diffusing receptor-ligand complexes was higher than that of slow diffusing receptor-ligand complexes. These findings ...

[2] = 14.3 nM Alexa532-ET1, equilibrium
[3] = control, 14.3 nM Alexa532-ET1, 45 min, living A10 cells, FCS, mean ± SD of six independent experiments

| Compound | inositol phosphate (IP1) production, dose-dependent increase up to [1] | incubation time necessary to reach thermodynamic equilibrium (ETA receptor) | total binding (endothelin ETA receptor; 14.3 nM Alexa532-ET1, 45 min, 20°C) | total bound ligand concentration (endothelin ETA receptor; 14.3 nM Alexa532-ET1, 45 min, 20°C, equilibrium) | bound ligand with hindered diffusion (D bound1) (endothelin ETA receptor; [2]) | receptor-ligand complexes with unrestricted lateral mobility (D bound2) (endothelin ETA receptor; [2]) | maximum number of binding sites B max (endothelin ETA receptor; bound versus total ligand, nonlinear curve fitting) | Free L with D free [%] (endothelin ETA receptor; [3]) | R-L with D bound1 [%] (hindered diffusion, % of total Alexa532-ET1) (endothelin ETA receptor; [3]) | R-L with D bound2 [%] (unrestricted lateral mobility, % of total Alexa532-ET1) (endothelin ETA receptor; [3]) | diffusion time constant τ bound2 (endothelin ETA receptor; receptor-ligand complex in plasma membrane, fast, 14.3 nM, 45 min, 20°C, n = 6) | diffusion time constant τ bound1 (endothelin ETA receptor; receptor-ligand complex in plasma membrane, slow, 14.3 nM, 45 min, 20°C, n = 6) | diffusion coefficient D bound1 (endothelin ETA receptor; receptor-ligand complexes with hindered lateral mobility, calculated from τ bound1) | diffusion coefficient D bound2 (endothelin ETA receptor; receptor-ligand complexes with unrestricted mobility, calculated from τ bound2) | total concentration at which binding saturates (endothelin ETA receptor; saturation of Alexa532-ET1 binding, 5–55 nM, 45 min) | inositol phosphate production (in words) [1] | diffusion time constant τ free (free diffusing Alexa532-ET1 in solution, n = 6) | diffusion coefficient D free (free diffusing ligand, calculated from τ free using equation (2)) | effect on Alexa532-muscimol binding (in words) (GABAA receptor) |
| --- | --- | --- | --- | --- | --- | --- | --- | --- | --- | --- | --- | --- | --- | --- | --- | --- | --- | --- | --- |
| Endothelin-1 [ET-1, reference compound] | 70 to 80 nM | more than 20 h |  |  |  |  |  |  |  |  |  |  |  |  |  |  |  |  |  |
| CC[C@H](C)[C@H](NC(=O)[C@H](CC(=O)O)NC(=O)[C@H](CC(C)C)NC(=O)[C@H](Cc1c[nH]cn1)NC(=O)[C@@H]1CSSC[C@H](N)C(=O)N[C@@H](CO)C(=O)N[C@H]2CSSC[C@H](NC(=O)[C@H](CCC(=O)O)NC(=O)[C@H](CCCCNC(=O)c3ccc(C4=c5cc6c(c(S(=O)(=O)O)c5Oc5c4cc4c(c5S(=O)(=O)O)NC(C)C4(C)C)=NC(C)C6(C)C)cc3)NC(=O)[C@H](CC(=O)O)NC(=O)[C@H](CCSC)NC(=O)[C@H](CC(C)C)NC(=O)[C@H](CO)NC(=O)[C@H](CO)NC2=O)C(=O)N[C@@H](C(C)C)C(=O)N[C@@H](Cc2ccc(O)cc2)C(=O)N[C@@H](Cc2ccccc2)C(=O)N1)C(=O)N[C@H](C(=O)N[C@@H](Cc1c[nH]c2ccccc12)C(=O)O)[C@@H](C)CC (some centres unmarked) [Alexa532-ET1] | 70 to 80 nM |  | 43.5 ± 12.3% | 6.22 ± 1.7 nM | 2.3 ± 0.7 nM | 3.9 ± 1.0 nM | 7.70 ± 0.74 nM | 56.5 ± 8.5% | 16.0 ± 5.2% | 27.5 ± 7.0% | 1.8 ± 0.2 ms | 63.6 ± 41.6 ms | 0.16 ± 0.06 μm^2/s | 5.6 ± 0.6 μm^2/s | approximately 35 nM | Dose-dependent increase of inositol phosphate production | 95.6 ± 9.0 μs | 104.2 ± 9.0 μm^2/s |  |
| Cc1ncc2n1-c1ccc(Cl)cc1C(c1ccccc1F)=NC2 [midazolam] |  |  |  |  |  |  |  |  |  |  |  |  |  |  |  |  |  |  | increased binding of Alexa532-muscimol |
